The results in this text go back to patent publication US20180264134A1, “A COMPOSITION OF GOLD NANOPARTICLES HAVING ANTIMICROBIAL PEPTIDES BOUND ON THEIR SURFACE FOR USE THE TREATMENT OF WOUND HEALING OR IN THE TREATMENT OF ISCHEMIC OR VASCULAR DISEASES OR IN THE TREATMENT OF SKIN DISORDERS” (priority 2015, published 2018).

Molecules are shown by their SMILES. Values joined by “and” are separate entries in the source; they are usually repeats but may differ in a detail not shown here. Equal values may be shown once.

The subject of series [1] is full-thickness excisional wounds. Description: In vivo wound healing, splinted mouse full thickness excisional model. On the set-up: species or system RjHan:NMRI female mice. The text has this:
For measure some parameters In vivo wound healing and tissue collection can be use. 6-7 week old RjHan:NMRI female mice (Janvier, BE) were anesthesized with isoflurane and the dorsal area was shaved using a depilatory cream a day before the surgery. Two 0.5-mm-thick silicone (Grace biolabs, UK) donut-shaped splints (OD=20 mm, ID=10 mm) were fixed on either side of the dorsal midline, approximately 3.5 cm from the ears and positioned with 6-0 nylon sutures (Monosof, USA). Full-thickness excisional wounds were made using an 8 mm round skin biopsy punch (Kai Europe GMBH, DE), centered within each splint. […] Wound areas were quantified using the Jmicro Vision software developed by N. Roduit at University of Geneva, Switzerland. Wound sizes are expressed as percentage of the initial respective wound. […]
In an embodiment, histology and immunohistochemistry assay were conducted: the wound halves were immediately fixed with paraformaldehyde (4% in PBS, 0.01 M, pH 7.4) and after 24 h, the samples were transferred to PBS buffer at 4° C. […] A semi-quantitative estimation of MT green staining was performed using FRIDA software (developed by Johns Hopkins University, USA) and the staining values were expressed as staining per unit area. […]

A further series concerns HUVECs. The experiment in a line: Cytotoxicity in HUVECs (PI viability, ATP, ROS). It counts as cell-based. How it is done: In an embodiment of the cytotoxicity studies in HUVECs and HaCaT may be seeded at a density of 1×10^4 and 2×10^4 cells per well respectively and cultured in a 96-well plate for 24 and then incubated with soluble LL37 (0.5, 1, 10, 30, 60 μg/mL), LL37 Au-NPs and AuNPs suspended in culture medium at different concentrations (25, 50, 100 and 200 μg/mL). After 5 and 24 h, CellTiter-Glo® Luminescent Cell Viability Assay (Promega) was used to assess the ATP production of the cells according to the supplier's instructions. For ROS quantification, cells were seeded at a density of 4×10^4 cells/cm^2 in 24-well plates and cultured for 24 h. Either LL37-Au NPs or Au NPs suspended in culture medium at different concentrations (25, 50, 100 and 200 μg/mL) were added to cells and left for 5 h and 48 h. Before the treatment ended, cells were dosed with 100 μM of 6-carboxy-2′,7′-dichlorodihydrofluorescein diacetate (DCFH-DA), a dye commonly used to measure intracellular changes in ROS, for 1 hour. After washing the cells twice, they were trypsinized, centrifuged and resuspended in PBS to proceed with flow cytometry analysis (FACS Canto II, BD Biosciences). 1 mM H2O2 was used as a positive control for ROS production. In addition, propidium iodide (PI) (1 μg/mL final concentration) was used to quantify cell viability and to exclude the dead cells (i.e. PI positive cells) from the DCFH analysis.

Turning to `CC[C@H](C)[C@H](NC(=O)[C@H](CCCCN)NC(=O)[C@H](CCC(=O)O)NC(=O)[C@H](CCCCN)NC(=O)[C@H](CO)NC(=O)[C@H](CCCCN)NC(=O)[C@H](CCCNC(=N)N)NC(=O)[C@H](Cc1ccccc1)NC(=O)[C@H](Cc1ccccc1)NC(=O)[C@H](CC(=O)O)NC(=O)CNC(=O)[C@H](CC(C)C)NC(=O)[C@@H](N)CC(C)C)C(=O)NCC(=O)N[C@@H](CCCCN)C(=O)N[C@@H](CCC(=O)O)C(=O)N[C@@H](Cc1ccccc1)C(=O)N[C@@H](CCCCN)C(=O)N[C@@H](CCCNC(=N)N)C(=O)N[C@H](C(=O)N[C@H](C(=O)N[C@@H](CCC(N)=O)C(=O)N[C@@H](CCCNC(=N)N)C(=O)N[C@H](C(=O)N[C@@H](CCCCN)C(=O)N[C@@H](CC(=O)O)C(=O)N[C@@H](Cc1ccccc1)C(=O)N[C@@H](CC(C)C)C(=O)N[C@@H](CCCNC(=N)N)C(=O)N[C@@H](CC(N)=O)C(=O)N[C@@H](CC(C)C)C(=O)N[C@H](C(=O)N1CCC[C@H]1C(=O)N[C@@H](CCCNC(=N)N)C(=O)N[C@H](C(=O)N[C@@H](CCC(=O)O)C(=O)N[C@@H](CO)C(=O)N[C@@H](CS)C(N)=O)[C@@H](C)O)C(C)C)[C@@H](C)CC)C(C)C)[C@@H](C)CC` [LL37], the wound healing in series [1] (after 10 days, LL37 70 μg per wound, listed as LL37 peptide) was 50% and 70%. Further, the “MPO activity in wound tissue” value in series [1] (day 10) is recorded as “significantly decreased”. Moreover, the “concentration showing cytotoxic effect” value in the series on HUVECs was determined as 10000 ng/mL. In addition, the “concentration up to which no significant change in cell viability, ATP production, ROS” value in the series with HUVECs (5 and 48 h) is no more than 30000 ng/mL. The “concentration at which significant cell death and ROS production were observed” value in the series on HUVECs (48 h) was 30000 ng/mL.
